{"source": "patent US20200009135A1", "about": "“THERAPEUTIC APPLICATIONS OF MALT1 INHIBITORS” (MEDIVIR AB, priority 2017, published 2020)", "key": {"[1]": {"tested_on": "IL-2 expression in Jurkat (E6-1) cells", "assay": "IL-2 expression assay (down-stream MALT1 activity, Jurkat E6-1)", "format": "cell-based", "details": "Homo sapiens; Jurkat E6-1, PMA/Ionomycin stimulation, 24 hours", "procedure": "Down-stream MALT1 activity was measured by PMA/lonomycin-induced expression of IL-2 in Jurkat (E6-1) cells. Compounds were distributed in a 96 well plate, 8-point concentration series, 1:3 dilution. Jurkat clone E6-1, 4×10^4 cells/well, were added, and stimulated by PMA/lonomycin (1:500 dilution) for 24 hours at 37° C. Measurement was performed using a MesoScale Sector S600 with the Human IL-2 Tissue Culture kit according to the manufacturers recommendation."}, "[2]": {"tested_on": "CD4+FoxP3+CD25+ cell induction", "assay": "Development of human T-regulatory cells from naive CD4 T cells (FoxP3+CD25+ induction)", "format": "cell-based", "details": "3 donors, 0.4 μM, 0.4 μM and 4.0 μM", "procedure": "Naïve CD4 T cell sorting and stimulation for regulatory T cell development A flat-bottom 48 well plate was coated with 250 μl of purified functional grade anti-human CD3 at 2 μg/ml in PBS. The plate was sealed and incubated at 37° C. for one hour. Peripheral blood mononuclear cells (PBMC) were isolated from human leucocyte reduction system cones by differential density centrifugation using Ficoll-PLUS (GE Healthcare). Cells were washed three times in RPMI+1% HI-FCS+1% penicillin/streptomycin (P/S) (1% RPMI), then resuspended at a concentration of 200×10^6/ml of 1% RPMI. An aliquot of cells was set aside for single colour controls, and the sample was stained at a dilution of 1:20 with anti-human CD4, anti-human CD45RA, anti-human CD25, and anti-human CD127 (antibodies from BioLegend and eBioscience) for 20 minutes on ice. Following the incubation, the stained PBMC were washed and resuspended at 50×10^6/ml in PBS+1% HI-FCS. Cells were sorted on a BD […] high speed cell sorter for the phenotype CD4+CD45RA+CD127+CD25-. Following the sort, cells were resuspended at 4×10^6/ml in pre-warmed cRPMI containing […] human IL-2 (final concentration 100 U/ml). […]\nStaining Regulatory T Cell Cultures Induced regulatory T cell cultures were washed and counted. […]\nCD4+ naïve T cells cultured for 10 days were analysed for their expression of FoxP3 and CD25. […]"}, "[3]": {"tested_on": "CMV-specific (NLV+) CD8+ Teff cells expressing IFNγ", "assay": "Human whole blood loop assay with CMV lysate", "format": "cell-based", "details": "4 μM, 6 hours, alone and in combination with CMV lysate 1 μg/ml", "procedure": "Each blood loop contained 2 mL of freshly taken human whole blood from HLA-A2+ and CMV+ donors.\nFreshly drawn whole blood from healthy volunteers (2 mL) in a tube was incubated under rotation at 37° C. for 6 hours. […] After 2 hours Brefeldin-A was added to allow intra-cellular analysis of cytokines (IFNγ and TNFα). Antigen-specific CD8+ T-cells were identified by fluorescence-conjugated tetrameric complexes of HLA-A2 molecules loaded with the NLV peptide epitope ([…]) of CMV pp65,"}, "[4]": {"tested_on": "MB49 mouse bladder cancer", "assay": "MB49 mouse bladder cancer model, Treg and Teff cells by flow cytometry", "format": "in vivo", "details": "C57BL/6 mice", "procedure": "Evaluation of Treg and Teff cell numbers was performed by flow cytometry. From a tumour sample (resected piece or biopsy), tumour cells and TILs are dispersed into single cell suspension. Cells are then washed with PBS and stained by antibodies. Samples were stained with antibodies to identify T-cell subpopulations; CD3-BV421 (Biolegend 100228), CD8-FITC (Biolegend 100706), CD4-PE (Biolegend 116005), CD25-PerCP Cy5.5 (Biolegend 101912, clone 3C7), for 15 minutes at room temperature, followed by addition of erythrocyte lysis buffer (cat no. 349202, BD BioSciences, Franklin Lakes, N.J., USA) for 8 minutes. Cells were permeabilized with FoxP3 fix/Perm (cat no. 421401, Biolegend San Diego, Calif., USA), washed with FoxP3 Perm buffer (Cat no. 421402, Biolegend) and stained with an Alexa Fluor® 647 labelled FoxP3 antibody (Cat no. 320013, Biolegend) according to the manufacturer's instructions. The cells were washed twice in PBS with 1% BSA and analyzed on a FACSCanto II (BD Biosciences). Data analysis was performed using FlowJo software (TreeStar, Ashland, Oreg., USA). For intracellular staining of cytokines, inclusion of transport inhibitors e.g. Monensin or Brefeldin A.\nThe murine bladder urothelial carcinoma cell line Mouse Bladder (MB)-49 is a C57BL/6-derived cell line cultured at 37 C and 5% CO2 in DMEM+GlutaMax supplemented with 10% FBS, 0.1 mM sodium pyruvate, 100 U/ml Penicillin-Streptomycin. For determining the effects of MALT1 inhibitor on the presence of T-effector and T-regulatory cells in vivo, 3×10^5 MB49 cells were injected s.c. on the right flank of female C57BL/6 mice. […] As reference 200 μg of anti-CD25 antibody (clone PC61) in 100 μL PBS was administered i.v. on day 8 and 11. The levels of Treg and Teff cells were analyzed by flow cytometry in the tumour (T) and in tumour-draining lymph nodes (TDLN) on day 12."}, "[5]": {"tested_on": "panel of human cancer cell lines", "assay": "Human cancer cell line panel (Oncolead), GI50, 72 hours", "format": "cell-based"}, "[6]": {"assay": "Follow-up 5 day cell growth assay WSU-NHL (CC50)", "format": "cell-based", "details": "human, WSU-NHL cells"}, "[7]": {"details": "p.o. once daily day 8-11, two doses, analysed day 12"}}}
{"compound": "CO[C@@H](C)c1c(NC(=O)Nc2cnc(-n3nccn3)c(Cl)c2)cnc2cc(Cl)nn12", "note": "[Example 2, (S)-1-(5-chloro-6-(2H-1,2,3-triazol-2-yl)pyridin-3-yl)-3-(2-chloro-7-(1-methoxyethyl)pyrazolo[1,5-a]pyrimidin-6-yl)urea]", "values": [{"measurement": "IC50", "setting": "[1]", "value": 0.01, "unit": "µM"}, {"measurement": "generation of a Treg phenotype and function", "setting": "[2]; highest degree of inhibition with 4.0 μM", "value": "inhibit"}, {"measurement": "CD4+FoxP3+CD25+ cell induction", "setting": "[2]; IL-2+TGFβ, 10 days, highest concentration most effective", "value": "robust inhibition"}, {"measurement": "activated antigen-specific IFNγ+CD8+ T cells", "setting": "[3]", "value": "increase"}, {"measurement": "amount of CD8/CD25 double positive cells (Teff) in TDLN", "setting": "[4]; p.o. once daily day 8-11, analysed day 12", "value": "not reduced"}, {"measurement": "percentage of FOXP3 positive cells (Treg) out of CD3/CD4 double positive cells in tumour", "setting": "[4]; [7]", "value": "reduced, in a dose-dependent manner"}, {"measurement": "percentage of FOXP3 positive cells (Treg) out of CD3/CD4 double positive cells in tumour-draining lymph nodes", "setting": "[4]; [7]", "value": "reduced, in a dose-dependent manner"}, {"measurement": "antiproliferative effect on the majority of cell lines tested", "setting": "[5]; 81 solid and 12 hematological cancer cell lines, 50 μM to 0.05 nM", "value": "essentially no antiproliferative effect"}, {"measurement": "GI50", "setting": "[5]; Homo sapiens, WSU-NHL cell line, not confirmed in follow-up assay", "value": "< 1000", "unit": "nM"}, {"measurement": "CC50 at 5 days", "setting": "[6]", "value": 77, "unit": "µM"}]}
